The values below are quoted from earlier work in article PMC9184245 (Journal of Pesticide Science, 2022).

For data set [1] the following is noted: measured value from experimental database; ref EPI Suite ver. 4.11.
In the next data set the test system is fish. Particulars: biomagnification factor, corrected by lipid content and growth rate.
The conditions of data set [2]: measured value; ref REACH registered substances database.

Turning to `c1ccc2c(c1)ccc1ccccc12` [Compound 1, Phenanthrene], the “log Kow” value in data set [1] is 4.46^a^). Turning to `c1ccc(-c2ccccc2-c2ccccc2)cc1` [Compound 2, o-Terphenyl], the “log Kow” value in data set [1] was 5.52^a^). Take `O=[N+]([O-])c1ccc(Oc2ccc(Cl)cc2Cl)cc1` [Compound 3, Nitrofen]: the “log Kow” value in data set [1] is 4.64^a^). In addition, the “Bioaccumulation potential, BMF” value in the data set with fish is “BMF^d^)=0.179[4])”. Consider `COc1ccc(C(c2ccc(OC)cc2)C(Cl)(Cl)Cl)cc1` [Compound 4, Methoxychlor], for which the “log Kow” value in data set [1] is 5.08^a^). As to `CC(C)(C)c1cc(CCC(=O)OCC(COC(=O)CCc2cc(C(C)(C)C)c(O)c(C(C)(C)C)c2)(COC(=O)CCc2cc(C(C)(C)C)c(O)c(C(C)(C)C)c2)COC(=O)CCc2cc(C(C)(C)C)c(O)c(C(C)(C)C)c2)cc(C(C)(C)C)c1O` [Compound 9, Pentaerythritol tetrakis[3-(3,5-di-tert-butyl-4-hydroxyphenyl)propionate]], the Water solubility in data set [2] is listed as <0.1^c^) mg/L.
